From patent EP1135374B9, “BENZIMIDAZOLE COMPOUNDS THAT ARE VITRONECTIN RECEPTOR ANTAGONISTS” (SCHERING CORPORATION, priority 1998, dated 2000)

Legend:
purified αllbβ3 receptor = purified αllbβ3 receptor (Homo sapiens, UniProt P05106+P08514); assay: similar competitive binding assay with 125I-echistatin on αllbβ3 receptor, used for the specificity index; settings: specificity index IC50 αllbβ3/ IC50 αvβ3; for SPECIFICITY αIIbβ3 / αvβ3: Table 10; for Specificity αllbβ3 / αvβ3: Table 16
Procedure: To measure the relative affinity of the test compounds for αvβ3 receptors versus affinity for αllbβ3 receptors, similar competitive assays were carried out using purified αllbβ3 receptor and ^125I-echistatin (iodinated using the lactoperoxidase method). The specificity index, which is a measure of the relative binding affinity for αvβ3, versus αllbβ3, may be determined by dividing the IC50 value for αllbβ3 by the IC50 value for αvβ3.

[1] = molecular target: T1, αvβ3 receptor (purified from human placenta) (Homo sapiens, UniProt P05106+P06756); assay: competition radioligand binding assay, 125I-echistatin to αvβ3 receptor; settings: αvβ3, inhibition of specific 125I-echistatin binding
T1 construct: αvβ3 receptor (purified from human placenta); from tissue; host or cells: human placenta
Procedure: The following assay procedure, which is a competition radioligand binding assay, was carried out to determine the activity of the foregoing compounds as αvβ3 antagonists. The competitive assay procedure described in Kumar, et. al., "Biochemical Characterization Of The Binding Of Echistatin To Integrin αvβ3 Receptor", Journal Of Pharmacology And Experimental Therapeutics, Vol. 283, No. 2, pp. 843-853 (1997) was employed. Thus, binding of ^125I-echistatin (radiolabeled by the chloramine-T method to a specific activity of 2000 Ci/mmol (Amersham, Chicago, Il.)) to αvβ3 receptor (purified from human placenta), both prepared as described in Kumar, et al., was competed by the compounds prepared in the foregoing examples. Purified αvβ3 receptor was coated onto Microlite-2 plates at a concentration of 50 ng/well. ^125I-echistatin was added to the wells to a final concentration of 0.05 nM in binding buffer (50 µl/well) in the presence of the competing test compound. The competing test compounds were employed at serially diluted concentrations ranging from 1 pM to 100 nM. After a 3 hour incubation at room temperature, the wells were washed, and radioactivity, reflecting binding by ^125 I-echistatin to αvβ3 receptors, was determined with Top Count (Packard). Each data point is an average of values from triplicate wells.
Specific binding of ^125I-echistatin was calculated as the difference between the amount of ^125I-echistatin bound in the absence (total binding) and the amount of ^125I-echistatin bound in the presence of a 200-fold molar excess of unlabeled echistatin (nonspecific binding). The efficacy of the test compounds for inhibiting specific binding of ^125I-echistatin to αvβ3 receptors was determined by plotting a graph of specific binding (y-axis) as a function of test compound concentration (x-axis). The concentration of test compound required to inhibit 50% of the specific binding (IC50) was determined from the plot. The IC50 may be directly converted mathematically to Ki, which is a measure of the receptor binding affinity of the compounds under the defined assay conditions.

| SMILES | SPECIFICITY αIIbβ3 / αvβ3 (purified αllbβ3 receptor) | IC50 ([1]; Table 10) [nM] | other results |
| --- | --- | --- | --- |
| CN(C)CC(=O)N(Cc1ccc(C(=O)NC[C@H](NC(=O)OCc2ccccc2)C(=O)O)cc1)Cc1nc2ccccc2[nH]1 [Example 5-24] | 14 | 5.3 |  |
| CC(C)NC(=O)N(Cc1ccc(C(=O)NC[C@H](NC(=O)OCc2ccccc2)C(=O)O)cc1)Cc1nc2ccccc2n1C [Example 5-93] |  |  | Specificity αllbβ3 / αvβ3 (purified αllbβ3 receptor): 124; IC50 ([1]; Table 16): 6.7 nM |
| O=C(N[C@@H](CNC(=O)c1ccc(CN(Cc2nc3ccccc3[nH]2)C(=O)NC23CC4CC(CC(C4)C2)C3)cc1)C(=O)O)OCc1ccccc1 [Example 5-40] | 288 | 5.7 |  |
| COCC(=O)N(CCc1nc2ccccc2[nH]1)Cc1ccc(C(=O)NCC(NC(=O)OCc2ccccc2)C(=O)O)cc1 (centres unmarked) [Example 5-72] |  |  | Specificity αIIβ3 / αvβ3 (purified αllbβ3 receptor; Table 14): 0.5; IC50 ([1]; Table 14): 559 nM |
| O=C(N[C@@H](CNC(=O)c1ccc(CN(Cc2nc3ccccc3[nH]2)C(=O)Nc2ccc(Cl)cc2)cc1)C(=O)O)OCc1ccccc1 [Example 5-35] | 240 | 8.1 |  |
| CCOC(=O)[C@H](CC(C)C)NC(=O)N(Cc1ccc(C(=O)NC[C@H](NC(=O)OCc2ccccc2)C(=O)O)cc1)Cc1nc2ccccc2[nH]1 [Example 5-53] | 483 | 3.8 |  |
| CCCCOC(=O)N[C@@H](CNC(=O)c1ccc(CN(Cc2nc3ccccc3[nH]2)C(=O)NC(C)(C)C)cc1)C(=O)O [Example 5-85] |  |  | Specificity αllbβ3 / αvβ3 (purified αllbβ3 receptor): 1223; IC50 ([1]; Table 16): 1.8 nM |
| O=C(N[C@@H](CNC(=O)c1ccc(CN(Cc2nc3ccccc3[nH]2)C(=O)C2CC2c2ccccc2)cc1)C(=O)O)OCc1ccccc1 (some centres unmarked) [Example 5-22] | 26 | 6.4 |  |
| O=C(N[C@@H](CNC(=O)c1ccc(CN(Cc2nc3ccccc3[nH]2)C(=S)NC2CCCCC2)cc1)C(=O)O)OCc1ccccc1 [Example 5-55] | 620 | 2.5 |  |
| CCNC(=O)N(Cc1ccc(C(=O)NC[C@H](NC(=O)OCc2ccccc2)C(=O)O)cc1)Cc1nc2ccccc2[nH]1 [Example 5-43] | 585 | 2.2 |  |
